SMILES strings stand for the structures. A value given as a limit tells only on which side of the number the result lay.

Results on 22 compounds are retold here after patent US20100120884A1, “USE OF DITHIINE-TETRACARBOXIMIDES FOR CONTROLLING PHYTOPATHOGENIC FUNGI” (priority 2008, published 2010).

The nature of data set [1]: physchem. Format: physicochemical. The conditions noted are these: pH 2.7. How it is done:
The determination of the logP values detailed in the tables and preparation examples hereinabove is carried out in accordance with EEC Directive 79/831 Annex V.A8 by means of HPLC (High Performance Liquid Chromatography) on a reversed-phase column (C 18). Temperature: 43° C.
The determination is carried out in the acidic range at pH 2.7, using 0.1% strength aqueous formic acid and acetonitrile (contains 0.1% formic acid) as eluents; linear gradient from 10% acetonitrile to 95% acetonitrile.
Calibration is carried out using unbranched alkan-2-ones (with 3 to 16 carbon atoms) with known logP values (determination of the logP values with reference to the retention times by linear interpolation between two successive alkanones).

For data set [2], the system named is Pyrenophora teres. Put plainly: Pyrenophora teres test (barley)/protective. Format: in vivo. The conditions noted are these: protective spray, 1000 ppm active substance, evaluation 8 days after inoculation. How it is done:
Pyrenophora teres Test (Barley)/Protective
To prepare a suitable preparation of active substance, 1 part by weight of active substance is mixed with the stated amounts of solvent and emulsifier, and the concentrate is diluted with water to the desired concentration.
To test for protective activity, young plants are sprayed with the active substance preparation at the application rate detailed. After the spray coating has dried on, the plants are sprayed with a spore suspension of Pyrenophora teres. The plants remain in an incubation cabinet for 48 hours at 20° C. and 100% relative atmospheric humidity. The plants are placed in a greenhouse at a temperature of approximately 20° C. and a relative atmospheric humidity of approximately 80%.
Evaluation is carried out 8 days after the inoculation. 0% means an efficacy which corresponds to that of the control, while an efficacy of 100% means that no disease is observed.

For the compound `CC(=O)OC(C)Cn1c(=O)c2sc3c(=O)n(CC(C)OC(C)=O)c(=O)c3sc2c1=O` (centres unmarked) [Compound 36, (1,3,5,7-Tetraoxo-1,3,5,7-tetrahydro-2H,6H-[1,4]dithiino[2,3-c:5,6-c′]dipyrrole-2,6-diyl)dipropane-1,2-diyl diacetate], the chromatographic logP – broadly, a lipophilicity value derived from retention on a column – in data set [1] is 3.09.

`CCC(Cn1c(=O)c2sc3c(=O)n(CC(CC)OC(C)=O)c(=O)c3sc2c1=O)OC(C)=O` (centres unmarked) [Compound 35, (1,3,5,7-Tetraoxo-1,3,5,7-tetrahydro-2H,6H-[1,4]dithiino[2,3-c:5,6-c′]dipyrrole-2,6-diyl)dibutane-1,2-diyl diacetate]: the chromatographic logP in data set [1] was 3.09.

`O=c1c2sc3c(=O)n(-c4cccc(C(F)(F)F)c4)c(=O)c3sc2c(=O)n1-c1cccc(C(F)(F)F)c1` [Compound 31, 2,6-Bis[3-(trifluoromethyl)phenyl]-1H,5H-[1,4]dithiino[2,3-c:5,6-c′]dipyrrole-1,3,5,7(2H,6H)-tetrone] had a chromatographic logP in data set [1] of 4.91.

Turning to `CCOCCn1c(=O)c2sc3c(=O)n(CCOCC)c(=O)c3sc2c1=O` [Compound 16, 2,6-Bis(2-ethoxyethyl)-1H,5H-[1,4]dithiino[2,3-c:5,6-c′]dipyrrole-1,3,5,7(2H,6H)-tetrone], the chromatographic logP in data set [1] worked out at 3.24.

In data set [1], `O=c1c2sc3c(=O)n(Cc4ccccc4)c(=O)c3sc2c(=O)n1Cc1ccccc1` [Compound 11, 2,6-Dibenzyl-1H,5H-[1,4]dithiino[2,3-c:5,6-c′]dipyrrole-1,3,5,7(2H,6H)-tetrone] had a chromatographic logP of 4.6.

As to `CC(CC(=O)O)n1c(=O)c2sc3c(=O)n(C(C)CC(=O)O)c(=O)c3sc2c1=O` (centres unmarked) [Compound 28, 3,3′-(1,3,5,7-Tetraoxo-1,3,5,7-tetrahydro-2H,6H-[1,4]dithiino[2,3-c:5,6-c′]dipyrrole-2,6-diyl)dibutanoic acid], in data set [1], the chromatographic logP was 1.99.

In turn, `CCn1c(=O)c2sc3c(=O)[nH]c(=O)c3sc2c1=O` [Compound 39, 2-Ethyl-1H,5H-[1,4]dithiino[2,3-c:5,6-c′]dipyrrole-1,3,5,7(2H,6H)-tetrone] yielded a chromatographic logP in data set [1] of 2.13.

For the compound `COCCn1c(=O)c2sc3c(=O)n(CCOC)c(=O)c3sc2c1=O` [Compound 12, 2,6-Bis(2-methoxyethyl)-1H,5H-[1,4]dithiino[2,3-c:5,6-c′]dipyrrole-1,3,5,7(2H,6H)-tetrone], in data set [1], the chromatographic logP was found to be 2.55.

In data set [1], `CC(C)(O)Cn1c(=O)c2sc3c(=O)n(CC(C)(C)O)c(=O)c3sc2c1=O` [Compound 34, 2,6-Bis(2-hydroxy-2-methylpropyl)-1H,5H-[1,4]dithiino[2,3-c:5,6-c′]dipyrrole-1,3,5,7(2H,6H)-tetrone] registered a chromatographic logP of 3.65.

For the compound `CCOC(=O)C(CC)n1c(=O)c2sc3c(=O)n(C(CC)C(=O)O)c(=O)c3sc2c1=O` (centres unmarked) [Compound 41, 2-[2-(1-Ethoxy-1-oxobutan-2-yl)-1,3,5,7-tetraoxo-2,3,5,7-tetrahydro-1H,6H-[1,4]dithiino[2,3-c:5,6-c′]-dipyrrole-6-yl]butanoic acid], the chromatographic logP in data set [1] is 1.73.

In the case of `CC(O)Cn1c(=O)c2sc3c(=O)n(CC(C)O)c(=O)c3sc2c1=O` (centres unmarked) [Compound 14, 2,6-Bis(2-hydroxypropyl)-1H,5H-[1,4]dithiino[2,3-c:5,6-c′]dipyrrole-1,3,5,7(2H,6H)-tetrone], in data set [1], the chromatographic logP came out at 1.63.

Turning to `CC(C)n1c(=O)c2sc3c(=O)n(C(C)C)c(=O)c3sc2c1=O` [Compound 4, 2,6-Di(propan-2-yl)-1H,5H-[1,4]dithiino[2,3-c:5,6-c′]dipyrrole-1,3,5,7(2H,6H)-tetrone], the chromatographic logP in data set [1] turned out to be 4.19.

`O=C(O)CCCCn1c(=O)c2sc3c(=O)n(CCCCC(=O)O)c(=O)c3sc2c1=O` [Compound 29, 5,5′-(1,3,5,7-Tetraoxo-1,3,5,7-tetrahydro-2H,6H-[1,4]dithiino[2,3-c:5,6-c′]dipyrrole-2,6-diyl)dipentanoic acid] returned a chromatographic logP in data set [1] of 2.02.

`Cn1c(=O)c2sc3c(=O)n(C)c(=O)c3sc2c1=O` [Compound 1, 2,6-Dimethyl-1H,5H-[1,4]dithiino[2,3-c:5,6-c′]dipyrrole-1,3,5,7(2H,6H)-tetrone] returned an efficacy in data set [2] not below 70%. The same compound came in with a chromatographic logP in data set [1] of 2.32.

As for `O=c1[nH]c(=O)c2sc3c(=O)[nH]c(=O)c3sc12` [Compound 8, 1H,5H-[1,4]Dithiino[2,3-c:5,6-c′]dipyrrole-1,3,5,7(2H,6H)-tetrone], in data set [1], the chromatographic logP stood at 1.13.

`O=C(O)C(Cc1ccccc1)n1c(=O)c2sc3c(=O)n(C(Cc4ccccc4)C(=O)O)c(=O)c3sc2c1=O` (centres unmarked) [Compound 32, 2,2′-(1,3,5,7-Tetraoxo-1,3,5,7-tetrahydro-2H,6H-[1,4]dithiino[2,3-c:5,6-c′]dipyrrole-2,6-diyl)bis(3-phenyl-propanoic acid)] gave a chromatographic logP in data set [1] of 3.12.

As for `CCC(O)Cn1c(=O)c2sc3c(=O)n(CC(O)CC)c(=O)c3sc2c1=O` (centres unmarked) [Compound 13, 2,6-Bis(2-hydroxybutyl)-1H,5H-[1,4]dithiino[2,3-c:5,6-c′]dipyrrole-1,3,5,7(2H,6H)-tetrone], the chromatographic logP in data set [1] is 2.27.

In turn, `CC(C(=O)O)n1c(=O)c2sc3c(=O)n(C(C)C(=O)O)c(=O)c3sc2c1=O` (centres unmarked) [Compound 24, 2,2′-(1,3,5,7-Tetraoxo-1,3,5,7-tetrahydro-2H,6H-[1,4]dithiino[2,3-c:5,6-c′]dipyrrole-2,6-diyl)dipropanoic acid] displayed a chromatographic logP in data set [1] of 1.76.

For `O=c1c2sc3c(=O)n(C4(C(F)(F)F)CC4)c(=O)c3sc2c(=O)n1C1(C(F)(F)F)CC1` [Compound 7, 2,6-Bis[1-(trifluoromethyl)cyclopropyl]-1H,5H-[1,4]dithiino[2,3-c:5,6-c′]dipyrrole-1,3,5,7(2H,6H)-tetrone], the chromatographic logP in data set [1] was found to be 4.03.

The compound `O=c1c2sc3c(=O)n(CCOc4ccccc4)c(=O)c3sc2c(=O)n1CCOc1ccccc1` [Compound 15, 2,6-Bis(2-phenoxyethyl)-1H,5H-[1,4]dithiino[2,3-c:5,6-c′]dipyrrole-1,3,5,7(2H,6H)-tetrone] had a chromatographic logP in data set [1] of 3.86.

Take `O=c1c2sc3c(=O)n(CC(F)(F)F)c(=O)c3sc2c(=O)n1CC(F)(F)F` [Compound 6, 2,6-Bis(2,2,2-trifluoroethyl)-1H,5H-[1,4]dithiino[2,3-c:5,6-c′]dipyrrole-1,3,5,7(2H,6H)-tetrone]: the chromatographic logP in data set [1] was determined as 3.41.

In the case of `CCCCC(C(=O)OCC)n1c(=O)c2sc3c(=O)n(C(CCCC)C(=O)OCC)c(=O)c3sc2c1=O` (centres unmarked) [Compound 40, Diethyl 2,2′-(1,3,5,7-tetraoxo-1,3,5,7-tetrahydro-2H,6H-[1,4]dithiino[2,3-c:5,6-e]dipyrrole-2,6-diyl)di-hexanoate], the “log P” value in data set [1] is “log P = 4.66”.
